Laboratory results taken from patent publication US20240299385A1 (ReWind Therapeutics NV, priority 2021, published 2024).

These molecules were tested against T1, human GPR17 receptor (Homo sapiens, UniProt Q13304) (assay: Calcium mobilization functional assay (Fluo-8, FLIPR TETRA) in HEK-293 hGPR17 (Gα-q assay)). Conditions: antagonism of MDL29,951 (~EC80) induced Ca2+ signal; cell line (HEK-293 hGPR17 or HEK-293 Suchi5 hGPR17) not given.
T1 construct: host or cells: HEK-293
Format: cell-based
Outline: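 Fluo-8-loaded HEK-293 hGPR17 cells (60 min dye loading, room temperature) were preincubated with compound for twenty minutes, then challenged with agonist MDL29,951 at ~EC80, 500 nM. Intracellular calcium release via Gα-q was recorded as FLIPR fluorescence for a further 2 minutes; compounds tested in duplicate.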

T1 sequence (Q13304 whole entry): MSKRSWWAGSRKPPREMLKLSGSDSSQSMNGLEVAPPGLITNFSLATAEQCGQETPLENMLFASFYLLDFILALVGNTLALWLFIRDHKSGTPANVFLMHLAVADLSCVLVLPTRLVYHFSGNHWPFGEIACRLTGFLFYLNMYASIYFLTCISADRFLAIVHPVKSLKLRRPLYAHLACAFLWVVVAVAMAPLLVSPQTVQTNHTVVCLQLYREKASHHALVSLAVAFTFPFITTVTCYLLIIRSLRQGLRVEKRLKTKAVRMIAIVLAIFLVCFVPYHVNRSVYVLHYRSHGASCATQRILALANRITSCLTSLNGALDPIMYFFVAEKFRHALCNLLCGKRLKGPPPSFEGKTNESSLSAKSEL

| IC50 [nM] | Compound |
| --- | --- |
| < 500 | Cc1cc(NS(=O)(=O)c2c[nH]cc2Cc2ccccc2)c(F)cc1C#N [Cpd 440, 4-benzyl-N-(4-cyano-2-fluoro-5-methylphenyl)-1H-pyrrole-3-sulfonamide] |
| < 500 | N#Cc1ccc(NS(=O)(=O)c2c[nH]c(-c3ccoc3)c2)c(F)c1 [Cpd 441, N-(4-cyano-2-fluorophenyl)-5-(furan-3-yl)-1H-pyrrole-3-sulfonamide] |
| < 500 | N#Cc1ccc(NS(=O)(=O)c2c[nH]c(-c3cccc4ccoc34)c2)c(F)c1 [Cpd 442, 5-(1-benzofuran-7-yl)-N-(4-cyano-2-fluorophenyl)-1H-pyrrole-3-sulfonamide] |
| < 500 | N#Cc1ccc(NS(=O)(=O)c2c[nH]c(-c3cccc4c3OCC4)c2)c(F)c1 [Cpd 443, N-(4-cyano-2-fluorophenyl)-5-(2,3-dihydro-1-benzofuran-7-yl)-1H-pyrrole-3-sulfonamide] |
| 500 to 5000 | COc1nc(OCC(F)F)c(F)cc1NS(=O)(=O)c1c[nH]cc1Cc1ccccc1 [Cpd 444, 4-benzyl-N-[6-(2,2-difluoroethoxy)-5-fluoro-2-methoxypyridin-3-yl]-1H-pyrrole-3-sulfonamide] |
| < 500 | N#Cc1ccc(NS(=O)(=O)c2c[nH]c(-c3ccco3)c2)c(F)c1 [Cpd 445, N-(4-cyano-2-fluorophenyl)-5-(furan-2-yl)-1H-pyrrole-3-sulfonamide] |
| 500 to 5000 | O=S(=O)(Nc1cc(F)c(Br)cc1F)c1c[nH]c(-c2ccc(F)cc2)c1 [Cpd 446, N-(4-bromo-2,5-difluorophenyl)-5-(4-fluorophenyl)-1H-pyrrole-3-sulfonamide] |
| 500 to 5000 | O=S(=O)(Nc1cc(F)c(Br)cc1F)c1c[nH]c(-c2ccc(F)cc2F)c1 [Cpd 447, N-(4-bromo-2,5-difluorophenyl)-5-(2,4-difluorophenyl)-1H-pyrrole-3-sulfonamide] |
| < 500 | N#CCOc1cc(F)c(NS(=O)(=O)c2c[nH]c(-c3ccccc3F)c2)cc1F [Cpd 448, N-[4-(cyanomethoxy)-2,5-difluorophenyl]-5-(2-fluorophenyl)-1H-pyrrole-3-sulfonamide] |
| < 500 | N#CCOc1cc(F)c(NS(=O)(=O)c2c[nH]c(-c3cc(Cl)ccc3F)c2)cc1F [Cpd 449, 5-(5-chloro-2-fluorophenyl)-N-[4-(cyanomethoxy)-2,5-difluorophenyl]-1H-pyrrole-3-sulfonamide] |
| 500 to 5000 | N#CCOc1cc(F)c(NS(=O)(=O)c2c[nH]c(-c3ccc(F)cc3)c2)cc1F [Cpd 450, N-[4-(cyanomethoxy)-2,5-difluorophenyl]-5-(4-fluorophenyl)-1H-pyrrole-3-sulfonamide] |
| 500 to 5000 | N#CCOc1cc(F)c(NS(=O)(=O)c2c[nH]c(-c3ccc(F)cc3F)c2)cc1F [Cpd 451, N-[4-(cyanomethoxy)-2,5-difluorophenyl]-5-(2,4-difluorophenyl)-1H-pyrrole-3-sulfonamide] |
| < 500 | O=S(=O)(Nc1cc(F)c(OC(F)F)cc1F)c1c[nH]cc1Cc1cccs1 [Cpd 452, N-[4-(difluoromethoxy)-2,5-difluorophenyl]-4-(thiophen-2-ylmethyl)-1H-pyrrole-3-sulfonamide] |
| < 500 | O=S(=O)(Nc1cc(F)c(OC(F)F)cc1F)c1c[nH]cc1Cc1cccc(F)c1 [Cpd 453, N-[4-(difluoromethoxy)-2,5-difluorophenyl]-4-[(3-fluorophenyl)methyl]-1H-pyrrole-3-sulfonamide] |
| 500 to 5000 | O=S(=O)(Nc1cc(F)c(OC(F)F)cc1F)c1c[nH]cc1Cc1cccc(Cl)c1 [Cpd 454, 4-[(3-chlorophenyl)methyl]-N-[4-(difluoromethoxy)-2,5-difluorophenyl]-1H-pyrrole-3-sulfonamide] |
| < 500 | O=S(=O)(Nc1cc(Cl)c(OC(F)F)cc1F)c1c[nH]c(-c2ccccc2)c1 [Cpd 455, N-[5-chloro-4-(difluoromethoxy)-2-fluorophenyl]-5-phenyl-1H-pyrrole-3-sulfonamide] |
| < 500 | N#Cc1cc(F)c(NS(=O)(=O)c2c[nH]c(-c3cc(Cl)c(F)cc3F)c2)cc1F [Cpd 456, 5-(5-chloro-2,4-difluorophenyl)-N-(4-cyano-2,5-difluorophenyl)-1H-pyrrole-3-sulfonamide] |
| 500 to 5000 | Cc1cc(-c2cc(S(=O)(=O)Nc3cc(F)c(C(F)(F)F)cc3F)c[nH]2)cs1 [Cpd 457, N-[2,5-difluoro-4-(trifluoromethyl)phenyl]-5-(5-methylthiophen-3-yl)-1H-pyrrole-3-sulfonamide] |
| 500 to 5000 | O=S(=O)(Nc1cc(F)c(C(F)(F)F)cc1F)c1c[nH]c(-c2csc(Cl)c2)c1 [Cpd 458, 5-(5-chlorothiophen-3-yl)-N-[2,5-difluoro-4-(trifluoromethyl)phenyl]-1H-pyrrole-3-sulfonamide] |
| < 500 | N#CCOc1cc(F)c(NS(=O)(=O)c2c[nH]c(-c3ccccc3Cl)c2)cc1F [Cpd 459, 5-(2-chlorophenyl)-N-[4-(cyanomethoxy)-2,5-difluorophenyl]-1H-pyrrole-3-sulfonamide] |
| 500 to 5000 | COc1nc(OCC(F)F)c(F)cc1NS(=O)(=O)c1c[nH]cc1-c1cccc(F)c1 [Cpd 460, N-[6-(2,2-difluoroethoxy)-5-fluoro-2-methoxypyridin-3-yl]-4-(3-fluorophenyl)-1H-pyrrole-3-sulfonamide] |
| 5000 to 50000 | Cc1[nH]cc(S(=O)(=O)Nc2ccc(C#N)cc2F)c1-c1ccccc1 [Cpd 461, N-(4-cyano-2-fluorophenyl)-5-methyl-4-phenyl-1H-pyrrole-3-sulfonamide] |
| < 500 | N#Cc1cc(F)c(NS(=O)(=O)c2c[nH]c(-c3c(F)cc(F)cc3F)c2)cc1F [Cpd 462, N-(4-cyano-2,5-difluorophenyl)-5-(2,4,6-trifluorophenyl)-1H-pyrrole-3-sulfonamide] |
| 500 to 5000 | O=S(=O)(Nc1cc(F)c(OCC(F)F)cc1F)c1c[nH]c(-c2ccccc2)c1 [Cpd 463, N-[4-(2,2-difluoroethoxy)-2,5-difluorophenyl]-5-phenyl-1H-pyrrole-3-sulfonamide] |
| 500 to 5000 | COc1cc(CC#N)cnc1NS(=O)(=O)c1c[nH]c(-c2ccccc2F)c1 [Cpd 464, N-[5-(cyanomethyl)-3-methoxypyridin-2-yl]-5-(2-fluorophenyl)-1H-pyrrole-3-sulfonamide] |
| 500 to 5000 | O=S(=O)(Nc1cc(F)c(C(F)(F)F)cc1F)c1c[nH]c(-c2cccc3cccnc23)c1 [Cpd 465, N-[2,5-difluoro-4-(trifluoromethyl)phenyl]-5-quinolin-8-yl-1H-pyrrole-3-sulfonamide] |
| 500 to 5000 | N#CCOc1cc(F)c(NS(=O)(=O)c2c[nH]cc2-c2cccc(F)c2)cc1F [Cpd 466, N-[4-(cyanomethoxy)-2,5-difluorophenyl]-4-(3-fluorophenyl)-1H-pyrrole-3-sulfonamide] |
| 500 to 5000 | O=S(=O)(Nc1cc(F)c(OCC(F)F)cc1F)c1c[nH]cc1Cc1ccccc1 [Cpd 468, 4-benzyl-N-[4-(2,2-difluoroethoxy)-2,5-difluorophenyl]-1H-pyrrole-3-sulfonamide] |
| 500 to 5000 | COc1nc(Br)cnc1NS(=O)(=O)c1c[nH]cc1-c1cccc(F)c1 [Cpd 469, N-(5-bromo-3-methoxypyrazin-2-yl)-4-(3-fluorophenyl)-1H-pyrrole-3-sulfonamide] |
| 500 to 5000 | N#Cc1cc(F)c(NS(=O)(=O)c2c[nH]c(-c3cc(Cl)c(F)cc3F)c2)cc1Cl [Cpd 470, 5-(5-chloro-2,4-difluorophenyl)-N-(5-chloro-4-cyano-2-fluorophenyl)-1H-pyrrole-3-sulfonamide] |
